One assay has as its system Calf thymus DNA. In words: Binding affinity for calf thymus DNA by measuring the change in midpoint of the thermal denaturation curves. The conditions noted are these: Bos taurus. Type of assay: nucleic-acid assay.
For another assay, the system named is Nucleic Acid. The experiment in a line: Binding affinity for poly dA-dT DNA by measuring the change in midpoint of the thermal denaturation curves. Type of assay: nucleic-acid assay.
Assay [1] relates to Plasmodium falciparum. In words: microbe, parasite or virus in culture.
Description: In vitro antiparasitic activity against chloroquine-resistant Plasmodium falciparum Indochina I
Assay [2] relates to Plasmodium falciparum. In words: microbe, parasite or virus in culture. This is another data set of the same source.
Description: In vitro antiparasitic activity against chloroquine-sensitive Plasmodium falciparum Haiti 135
Another assay deals with A549. The experiment in a line: Cytotoxicity against human lung cell carcinoma A549 cell line. The assay is classed as functional, cell-based.

Experimental findings from ChEMBL document CHEMBL1148453, “Parallel solution-phase synthesis of conformationally restricted congeners of pentamidine and evaluation of their antiplasmodial activities” (J Med Chem, 2004) are described below.

pIC50: −log10 of the molar value.

Regarding `NNC(=O)c1ccc(N2CCN(c3ccc(C(=O)NN)cc3)CC2)cc1`, the figures for the thermal shift (ΔTm) in the assay on Calf thymus DNA and in the assay on Nucleic Acid were 0.1 °C and 0 °C, respectively. For the same compound, the pIC50 with Plasmodium falciparum [1] and in the assay with Plasmodium falciparum [2] was below 6.30 in each case.

On to `c1cc(N2CCN(c3ccc(C4OCCO4)cc3)CC2)ccc1C1OCCO1`, for which the values for the ΔTm in the assay on Calf thymus DNA and in the assay on Nucleic Acid were -1.2 °C and 0.1 °C, respectively. Besides, the pIC50 in the assay with Plasmodium falciparum [1] and in the assay with Plasmodium falciparum [2] was below 6.30 throughout.

In the case of `N=C(N)c1ccc(OCCCCCOc2ccc(C(=N)N)cc2)cc1` [PENTAMIDINE], the pIC50 in the assay on A549 was 4.40; with Plasmodium falciparum [1] it was 7.35; with Plasmodium falciparum [2] it was 7.82. The values for the ΔTm in the assay on Calf thymus DNA and with Nucleic Acid were 11.1 °C and 20.6 °C, respectively.

`CCN(CC)CCCC(C)Nc1ccnc2cc(Cl)ccc12` (stereo unspecified) [CHLOROQUINE] gave a pIC50 in the assay on A549 of 4.40.

`c1ccc(N2CCN(c3ccccc3)C2c2ccc(N3CCN(c4ccc(C5N(c6ccccc6)CCN5c5ccccc5)cc4)CC3)cc2)cc1`: the ΔTm with Calf thymus DNA was -1.2 °C; in the assay on Nucleic Acid, 0 °C. Moreover, the pIC50 in the assay on Plasmodium falciparum [1] and in the assay on Plasmodium falciparum [2] was below 6.30 each time.

As for `N=C(N)c1ccc(N2CCCN(c3ccc(C(=N)N)cc3)CC2)cc1`, the pIC50 in the assay with A549 was below 3.69; in the assay with Plasmodium falciparum [1], 7.00; with Plasmodium falciparum [2] it was 6.82. Further, the results for the ΔTm in the assay with Calf thymus DNA and in the assay with Nucleic Acid were 15 °C and 23.1 °C, respectively.

Regarding `CN1CCN(C)C1c1ccc(N2CCN(c3ccc(C4N(C)CCN4C)cc3)CC2)cc1`, the figures for the ΔTm with Calf thymus DNA and in the assay with Nucleic Acid were 2.4 °C and 1.8 °C, respectively. Further, the pIC50 with Plasmodium falciparum [1] and with Plasmodium falciparum [2] was below 6.30 each time.

Consider `CCOC(=O)c1ccc(N2CCN(c3ccc(C(=O)OCC)cc3)CC2)cc1`, for which the ΔTm with Calf thymus DNA is 0.6 °C; in the assay on Nucleic Acid it was 0 °C. The pIC50 in the assay on Plasmodium falciparum [1] and in the assay on Plasmodium falciparum [2] was below 6.30 in each case.

The term ΔTm denotes the shift of the melting midpoint relative to a reference. What is called pIC50 is the IC50 on a negative log10 scale, so that one unit is a factor of ten. A low value points to a high IC50.
